From US20260123631A1, “NATURAL PORPHIN SALT AND USE THEREOF AS PLANT GROWTH REGULATOR AND PLANT IMMUNITY INDUCER” (NANJING BOSTEC BIOLOGICAL ENGINEERING CO., LTD, priority 2022, published 2026)

Assays:
rice [1] = assay: Rice yield in the sheath blight field experiment; format: in vivo, rice (Nanjing 9108); conditions: 3.0 mg/mu sprayed 3 times
Method: A test sample was dissolved, diluted, thoroughly stirred, and then applied, with an application area of 3 mu for each treatment. The harvesting was conducted on Nov. 8, 2021. On the eve of harvesting, the yield composition and structure were investigated. Then a yield per mu was measured.

rice [2] = assay: Rice yield in the leaf blast field experiment; format: in vivo, rice (Nanjing 9108); conditions: 3 mg/mu sprayed 3 times
Method: (§1) The experiment was conducted according to experimental specifications in the field efficacy standard of GB/T17980.19-2000. In the experiment, the following two treatments were set: a first treatment: sodium iron chlorin was applied, and a second treatment: a blank control (water) was applied. A test sample was fully dissolved and diluted, and then applied. Based on the characteristics of disease and pest control, an agent was applied once at each of a late tillering stage (Jul. 22, 2021), a jointing-booting stage (Aug. 16, 2021), and a full heading stage (Aug. 30, 2021). […] Water amounts required per mu for the three times were 30 L, 45 L, and 45 L (sample concentrations: 0.1 ppm, 0.067 ppm, and 0.067 ppm), respectively. An area for each treatment was 3 mu. According to a five-point sampling method, 5 sampling points (20 m^2 per sampling point) were set for each treatment. The occurrence of leaf blast in rice was investigated in the field before harvesting.
The harvesting was conducted on Nov. 8, 2021. On the eve of harvesting, the yield composition and structure were investigated. Then a yield per mu was measured.

leaf blast in rice = assay: Field control of leaf blast in rice; format: in vivo, rice (Nanjing 9108); conditions: 3 mg/mu sprayed 3 times (0.1, 0.067, 0.067 ppm)
Method: as §1

sheath blight in rice = assay: Field control of sheath blight in rice; format: in vivo, rice (Nanjing 9108); conditions: 3.0 mg/mu sprayed 3 times (0.100, 0.067, 0.067 ppm)
Method: A test sample was dissolved, diluted, thoroughly stirred, and then applied, with an application area of 3 mu for each treatment. Before harvesting, five-point sampling (20 m^2 per sampling point) was conducted for each treatment to determine the details of sheath blight in rice.

chlorophyllase = assay: In vitro chlorophyllase-inhibiting activity test; format: biochemical, mung bean; conditions: substrate chlorophyll 120 ppm, sample 0.3 ppm to 30.0 ppm
Method: A chlorophyllase inhibition rate of a salt sample solution at each concentration was determined, and an IC50 value for a chlorophyllase inhibition activity of a salt sample was calculated.

rice [3] = assay: Alleviation of herbicide damage in rice; format: in vivo, rice (Jinjing 818); conditions: 0.25 ppm
Method: Method: A treatment plot of 1.5 mu and a control plot of 1.5 mu were set. The sample was sprayed twice after the herbicide damage occurred in rice sprayed with a herbicide. Clear water was adopted as a blank control. Specific operations were as follows:
On June 20 when weeds had 3 leaves and rice had 3 to 3.5 leaves, the treatment plot and the control plot both were treated with 4% imazamox at 200 mL/mu and 10% pyribenzoxim at 40 mL/mu by a stem and leaf spray method, with 30 kg of water per mu. One week later, a weeding effect was prominent, but rice underwent obvious pesticide damage. 10 d after the herbicide application (June 30), the treatment plot was sprayed with the sample at 7.5 mg/mu by a stem and leaf spray method, with a solution of 30 L per mu. The control plot was sprayed with clear water. At an inflorescence emergence stage of rice (August 25), the spraying was conducted once again by the same method.

[4] = Water solubility of the prepared salts; format: physicochemical
tobacco = assay: Spraying on tobacco to improve a yield; format: in vivo, tobacco (Yunyan 87); conditions: 45 L per mu
Method: Method: Four spraying concentrations were set. For each treatment, four plots were adopted, with each plot of 20 m^2. […] During harvesting, sampling was conducted to count a plant height, a leaf length, a leaf width, and a single-leaf weight. All tobacco leaves of the plots were baked into flue-cured tobacco. […]

mosaic virus = assay: Controlling diseases in tobacco by spraying; format: in vivo, tobacco (Yunyan 87); conditions: 30 L/mu
Excerpt: For each treatment, 4 plots relatively scattered were selected from the field, with each plot of 50 m^2. An agent was sprayed twice around May 28 and June 4 during a root-spreading stage (12 leaves to 14 leaves) after tobacco transplanting, respectively. A same spraying volume (30 L/mu) was adopted for each treatment. During the spraying operation, each leaf surface should be sprayed evenly without dead corners left.
On July 15, tobacco plants in all treatment plots were surveyed. An incidence grading survey was conducted according to the Grade and investigation method of tobacco diseases and insect pests GB/T23222-2008, and an incidence rate and a disease index were counted for each treatment plot.

[5] = 7.5 mg/mu sprayed twice after imazamox/pyribenzoxim damage

## sodium iron chlorin [Example 21]
Rice [1]
  Ear number per mu: 26.14 10,000
  Filled grain number per ear: 99.93
  Thousand-grain weight: 27.00 g
  Yield: 705.38 kg/mu
Rice [1]; versus clear water
  Yield increase rate: 11.46%
Rice [2]
  Ear number per mu: 22.40 10,000
  Filled grain number per ear: 117.39
  Thousand-grain weight: 26.9 g
  Yield: 616.85 kg/mu
Rice [2]; versus water
  Yield increase rate: 7.1%
Leaf blast in rice
  Average disease index: 20.09%
  Average incidence rate: 8.0%
  Corrected control effect: 43.93%
Sheath blight in rice
  Corrected control: 45.16%
  Disease index: 21.61%
  Diseased plant rate: 10.4%
chlorophyllase
  IC50 for chlorophyllase inhibition activity: 5.22 ppm
Rice [3]; [5]
  Actual yield: 675 kg/mu
  Ear number/mu: 275945.5
  Filled grain number/ear: 97.64
  Grain number/ear: 104.5
  Seed set rate: 0.9344
  Theoretical yield: 816.8 kg/mu
  Thousand-grain weight: 30.30 g
Rice [3]; 7.5 mg/mu sprayed twice, versus clear water
  increase of yield per mu: ≥ 22%
[4]
  solubility in water: easily soluble
tobacco; 0.05 ppm sprayed twice
  Leaf length: 76.0 cm
  Leaf width: 28.5 cm
  Plant height: 114.2 cm
  Weight/leaf: 8.4 g
  Yield: 133.75 kg/mu
  Yield increase rate: 9.4%
tobacco; 0.10 ppm sprayed twice
  Leaf length: 77.2 cm
  Leaf width: 28.9 cm
  Plant height: 116.7 cm
  Weight/leaf: 8.7 g
  Yield: 138.67 kg/mu
  Yield increase rate: 13.5%
tobacco; 0.20 ppm sprayed twice
  Leaf length: 75.6 cm
  Leaf width: 28.4 cm
  Plant height: 114.3 cm
  Weight/leaf: 8.4 g
  Yield: 133.59 kg/mu
  Yield increase rate: 9.3%
tobacco; 0.30 ppm sprayed twice
  Leaf length: 74.7 cm
  Leaf width: 28 cm
  Plant height: 114.5 cm
  Weight/leaf: 8.3 g
  Yield: 132.54 kg/mu
  Yield increase rate: 8.5%
Mosaic virus; 0.05 ppm sprayed twice
  Disease index: 8.94
  Relative control effect: 65.48%
Mosaic virus; 0.10 ppm sprayed twice
  Disease index: 8.77
  Relative control effect: 66.13%
Mosaic virus; 0.20 ppm sprayed twice
  Disease index: 8.15
  Relative control effect: 71.00%
